Test results taken from patent US20260035387A1 (BIOGEN MA INC., priority 2022, published 2026).
pIC50: −log10 of the molar value.

tested on: mutant Huntington (HTT) protein; assay: HTT Mutant HTRF iPSC assay (mHTT protein lowering); type: cell-based; conditions: human iPSC derived from a HTT patient with a poly-Q49 mutation

`COc1cn2nc(C)cc2cc1NC(=O)c1cc2ccc(N3CCC4(CCCN4C)C3)nc2s1` (single isomer, unassigned) [Compound 224] and `COc1c(NC(=O)c2cc3ccc(N4CCC5(CCCN5C)C4)nc3s2)cc2cn(C)nc2c1F` (racemic) [Compound 231, N-(7-fluoro-6-methoxy-2-methyl-2H-indazol-5-yl)-6-(1-methyl-1,7-diazaspiro[4.4]nonan-7-yl)thieno[2,3-b]pyridine-2-carboxamide] cannot be ordered by pIC50: over 7.00 for the first, over 7.00 for the second.

Compared with `COc1cc2nn(C)cc2cc1NC(=O)c1cc2ccc(N3CCC(N(C)C)C3)nc2s1` (stereo not shown) [Compound 74, 6-(3-(dimethylamino)pyrrolidin-1-yl)-N-(6-methoxy-2-methyl-2H-indazol-5-yl)thieno[2,3-b]pyridine-2-carboxamide], `CN(C)C1CCN(c2ccc3cc(C(=O)Nc4cc(F)c5nn(C)cc5c4)sc3n2)C1` (stereo not shown) [Compound 65, 6-(3-(dimethylamino)pyrrolidin-1-yl)-N-(7-fluoro-2-methyl-2H-indazol-5-yl)thieno[2,3-b]pyridine-2-carboxamide] is higher in pIC50: 6.00 to 7.00 for the first, over 7.00 for the second. The second is the more potent here.

`Cc1cn2cc(NC(=O)c3cc4ccc(N5C[C@@H]6CCN(C)[C@@H]6C5)nc4s3)cc(F)c2n1` [Compound 66, 6-[(3aS,6aS)-1-methyl-2,3,3a,4,6,6a-hexahydropyrrolo[3,4-b]pyrrol-5-yl]-N-(8-fluoro-2-methyl-imidazo[1,2-a]pyridin-6-yl)thieno[2,3-b]pyridine-2-carboxamide] and `CCN[C@H]1CCN(c2ccc3cc(C(=O)Nc4cc(F)c5nc(C)cn5c4)sc3n2)C1` (stereo in doubt) [Compound 67, 6-[(3S)-3-(ethylamino)pyrrolidin-1-yl]-N-(8-fluoro-2-methyl-imidazo[1,2-a]pyridin-6-yl)thieno[2,3-b]pyridine-2-carboxamide] cannot be ordered by pIC50: over 7.00 for the first, over 7.00 for the second.

`Cc1cn2cc(NC(=O)c3cc4ccc(N5CC(N(C)C)C5)nc4s3)ccc2n1` [Compound 22, 6-(3-(dimethylamino)azetidin-1-yl)-N-(2-methylimidazo[1,2-a]pyridin-6-yl)thieno[2,3-b]pyridine-2-carboxamide] and `Cc1cn2cc(NC(=O)c3cc4ccc(N5CCC(N(C)C)C5)nc4s3)ccc2n1` (stereo not shown) [Compound 1, 6-[3-(dimethylamino)pyrrolidin-1-yl]-N-(2-methylimidazo[1,2-a]pyridin-6-yl)thieno[2,3-b]pyridine-2-carboxamide] fall in the same range of pIC50: 5.05 to 6.00 for the first, 5.05 to 6.00 for the second.

`Cc1cn2cc(NC(=O)c3cc4ccc(C5CCNC(C)(C)C5)nc4s3)cc(F)c2n1` (stereo not shown) [Compound 176, 6-(2,2-dimethylpiperidin-4-yl)-N-(8-fluoro-2-methylimidazo[1,2-a]pyridin-6-yl)thieno[2,3-b]pyridine-2-carboxamide] and `Cc1cn2cc(NC(=O)c3cc4ccc(C5CCNCC5)nc4s3)cc(F)c2n1` [Compound 85, N-(8-fluoro-2-methylimidazo[1,2-a]pyridin-6-yl)-6-(piperidin-4-yl)thieno[2,3-b]pyridine-2-carboxamide] cannot be ordered by pIC50: over 7.00 for the first, over 7.00 for the second.

`CN(C)C1CCN(c2ccc3cc(C(=O)Nc4ccc5sc(=O)n(C)c5c4)sc3n2)C1` (stereo not shown) [Compound 59, 6-(3-(dimethylamino)pyrrolidin-1-yl)-N-(3-methyl-2-oxo-2,3-dihydrobenzo[d]thiazol-5-yl)thieno[2,3-b]pyridine-2-carboxamide] and `Cc1cn2cc(NC(=O)c3cc4ccc(N5CCC(N(C)C)C5)nc4s3)cc(C)c2n1` (stereo not shown) [Compound 73, 6-(3-(dimethylamino)pyrrolidin-1-yl)-N-(2,8-dimethylimidazo[1,2-a]pyridin-6-yl)thieno[2,3-b]pyridine-2-carboxamide] fall in the same range of pIC50: 5.05 to 6.00 for the first, 5.05 to 6.00 for the second.

First: CCOc1cn2nc(C)cc2cc1NC(=O)c1cc2ccc(N3CC4(CCN(C)C4)C3)nc2s1 [Compound 256, N-(6-ethoxy-2-methylpyrazolo[1,5-a]pyridin-5-yl)-6-(6-methyl-2,6-diazaspiro[3.4]octan-2-yl)thieno[2,3-b]pyridine-2-carboxamide]
Second: COc1cc2nn(C)cc2cc1NC(=O)c1cc2ncc(N3CCC4(CN(C)C4)C3)nc2s1 [Compound 248, N-(6-methoxy-2-methyl-2H-indazol-5-yl)-3-(2-methyl-2,6-diazaspiro[3.4]octan-6-yl)thieno[2,3-b]pyrazine-6-carboxamide]
The pIC50 of the first is higher: over 7.00 for the first, 6.00 to 7.00 for the second. The first is the more potent here.

Compared with `COc1cc2nn(C)cc2cc1NC(=O)c1cc2nc(C3CCN(C)CC3)ccc2o1` [Compound 269, N-(6-methoxy-2-methyl-2H-indazol-5-yl)-5-(1-methylpiperidin-4-yl)furo[3,2-b]pyridine-2-carboxamide], `COc1c(NC(=O)c2cc3ccc(C4CCN(C)C4)nc3s2)cc2cn(C)nc2c1F` (single isomer, unassigned) [Compound 266] is higher in pIC50: 6.00 to 7.00 for the first, over 7.00 for the second.

`Cc1cn2cc(NC(=O)c3cc4ccc(N5CCC6(CCCN6C)C5)nc4s3)nc(C)c2n1` (stereo not shown) [Compound 208, N-(2,8-dimethylimidazo[1,2-a]pyrazin-6-yl)-6-(1-methyl-1,7-diazaspiro[4.4]nonan-7-yl)thieno[2,3-b]pyridine-2-carboxamide] and `Cc1cn2cc(NC(=O)c3cc4ccc(N5CCC(N6CCC6)C5)nc4s3)nc(C)c2n1` (stereo not shown) [Compound 228, 6-(3-(azetidin-1-yl)pyrrolidin-1-yl)-N-(2,8-dimethylimidazo[1,2-a]pyrazin-6-yl)thieno[2,3-b]pyridine-2-carboxamide] cannot be ordered by pIC50: over 7.00 for the first, over 7.00 for the second.

`Cc1cn2cc(NC(=O)c3cc4ccc(NC5CCN6CCCC6C5)nc4s3)ccc2n1` (stereo not shown) [Compound 14, N-(2-methylimidazo[1,2-a]pyridin-6-yl)-6-((octahydroindolizin-7-yl)amino)thieno[2,3-b]pyridine-2-carboxamide] and `Cc1cn2cc(NC(=O)c3cc4ccc(N5CCC(N(C)C)CC5)nc4s3)ccc2n1` [Compound 11, 6-(4-(dimethylamino)piperidin-1-yl)-N-(2-methylimidazo[1,2-a]pyridin-6-yl)thieno[2,3-b]pyridine-2-carboxamide] fall in the same range of pIC50: 6.00 to 7.00 for the first, 6.00 to 7.00 for the second.

`Cc1cn2cc(NC(=O)c3nc4ccc(N5CC[C@H](N(C)C)C5)nc4s3)cc(F)c2n1` [Compound 93, (S)-5-(3-(dimethylamino)pyrrolidin-1-yl)-N-(8-fluoro-2-methylimidazo[1,2-a]pyridin-6-yl)thiazolo[5,4-b]pyridine-2-carboxamide] and `COc1nc(NC(=O)c2nc3ccc(N4CC[C@@H](N(C)C)C4)nc3s2)cn2cc(C)nc12` [Compound 117, (R)-5-(3-(dimethylamino)pyrrolidin-1-yl)-N-(8-methoxy-2-methylimidazo[1,2-a]pyrazin-6-yl)thiazolo[5,4-b]pyridine-2-carboxamide] cannot be ordered by pIC50: over 7.00 for the first, over 7.00 for the second.

`Cc1cn2cc(NC(=O)c3nc4ccc(N5CCC6(CCN6)C5)nc4s3)cc(F)c2n1` (single isomer, unassigned) [Compound 111] and `Cc1cn2cc(NC(=O)c3nc4ccc(N5C[C@H]6CCN[C@H]6C5)nc4s3)cc(F)c2n1` [Compound 108, N-(8-fluoro-2-methylimidazo[1,2-a]pyridin-6-yl)-5-((3aR,6aR)-hexahydropyrrolo[3,4-b]pyrrol-5(1H)-yl)thiazolo[5,4-b]pyridine-2-carboxamide] cannot be ordered by pIC50: over 7.00 for the first, over 7.00 for the second.

`COc1c(NC(=O)c2nc3ccc(N4CCC5(CCCN5C)C4)nc3s2)cn2cc(C)nc2c1F` (single isomer, unassigned) [Compound 128] and `Cc1cn2cc(NC(=O)c3nc4ccc(C5=C[C@@H](C)N[C@@H](C)C5)nc4s3)cc(F)c2n1` [Compound 140, 5-[(2S,6R)-2,6-dimethyl-1,2,3,6-tetrahydropyridin-4-yl]-N-(8-fluoro-2-methyl-imidazo[1,2-a]pyridin-6-yl)thiazolo[5,4-b]pyridine-2-carboxamide] cannot be ordered by pIC50: over 7.00 for the first, over 7.00 for the second.

`Cc1cn2cc(NC(=O)c3cc4cnc(N5CC[C@@H](N(C)C)C5)nc4s3)nc(C)c2n1` [Compound 150, (R)-2-(3-(dimethylamino)pyrrolidin-1-yl)-N-(2,8-dimethylimidazo[1,2-a]pyrazin-6-yl)thieno[2,3-d]pyrimidine-6-carboxamide] and `Cc1cn2cc(NC(=O)c3cc4cnc(N5CC[C@H](N(C)C)C5)nc4s3)cc(F)c2n1` [Compound 152, 2-[(3S)-3-(dimethylamino)pyrrolidin-1-yl]-N-(8-fluoro-2-methyl-imidazo[1,2-a]pyridin-6-yl)thieno[2,3-d]pyrimidine-6-carboxamide] fall in the same range of pIC50: 6.00 to 7.00 for the first, 6.00 to 7.00 for the second.

First: Cc1cn2cc(NC(=O)c3cc4ccc(N5CCC6(CCN(C)CC6)CC5)nc4s3)ccc2n1 [Compound 20]
Second: Cc1cn2cc(NC(=O)c3cc4ccc(N5CCC(N6CC(C)(C)C6)CC5)nc4s3)ccc2n1 [Compound 17, 6-(4-(3,3-dimethylazetidin-1-yl)piperidin-1-yl)-N-(2-methylimidazo[1,2-a]pyridin-6-yl)thieno[2,3-b]pyridine-2-carboxamide]
The pIC50 of the first is higher: 6.00 to 7.00 for the first, 5.05 to 6.00 for the second. The first is the more potent here.

Compared with `Cc1cn2cc(NC(=O)c3cc4ccc(N5C[C@@H]6CNC[C@@H]65)nc4s3)cc(F)c2n1` [Compound 196, 6-((1S,5R)-3,6-diazabicyclo[3.2.0]heptan-6-yl)-N-(8-fluoro-2-methylimidazo[1,2-a]pyridin-6-yl)thieno[2,3-b]pyridine-2-carboxamide], `Cc1cn2cc(NC(=O)c3cc4ncc(C5=CCCC(N)C5)nc4s3)cc(F)c2n1` (racemic) [Compound 143, 3-(5-aminocyclohex-1-en-1-yl)-N-(8-fluoro-2-methylimidazo[1,2-a]pyridin-6-yl)thieno[2,3-b]pyrazine-6-carboxamide] is lower in pIC50: over 7.00 for the first, 6.00 to 7.00 for the second.

First: Cc1cn2cc(NC(=O)c3cc4ccc(NCC(C)(C)CN(C)C)nc4s3)ccc2n1 [Compound 41, 6-((3-(dimethylamino)-2,2-dimethylpropyl)amino)-N-(2-methylimidazo[1,2-a]pyridin-6-yl)thieno[2,3-b]pyridine-2-carboxamide]
Second: COc1cc2nn(C)cc2cc1NC(=O)c1cc2ccc(N[C@H]3CC(C)(C)NC(C)(C)[C@@H]3F)nc2s1 (racemic) [Compound 261, 6-(((3R,4S)-3-fluoro-2,2,6,6-tetramethylpiperidin-4-yl)amino)-N-(6-methoxy-2-methyl-2H-indazol-5-yl)thieno[2,3-b]pyridine-2-carboxamide]
The pIC50 of the first is lower: 5.05 to 6.00 for the first, over 7.00 for the second. The second is the more potent here.
